Bridge positions count the residues as written; N and C are the ends. Square brackets hold non-standard residues; d marks the D form. Peptide text beside a SMILES is read from it. αMeY = C[C@](N)(Cc1ccc(O)cc1)C(=O)O

The assay concerns the target T1, Growth hormone-releasing hormone receptor (Rattus norvegicus) (UniProt Q02644).
T1 sequence (whole entry): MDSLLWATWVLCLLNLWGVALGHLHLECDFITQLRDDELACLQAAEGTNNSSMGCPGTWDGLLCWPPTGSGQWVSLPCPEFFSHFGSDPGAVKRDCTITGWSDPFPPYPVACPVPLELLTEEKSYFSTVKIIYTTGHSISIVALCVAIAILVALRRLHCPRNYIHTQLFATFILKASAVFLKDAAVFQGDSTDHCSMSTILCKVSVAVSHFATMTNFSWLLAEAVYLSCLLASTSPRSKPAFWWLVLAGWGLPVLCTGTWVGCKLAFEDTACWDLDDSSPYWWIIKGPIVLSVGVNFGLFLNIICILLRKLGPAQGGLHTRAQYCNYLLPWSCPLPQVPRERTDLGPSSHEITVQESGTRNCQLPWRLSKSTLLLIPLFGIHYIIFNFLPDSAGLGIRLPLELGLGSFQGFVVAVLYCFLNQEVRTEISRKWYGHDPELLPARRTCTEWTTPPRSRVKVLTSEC
In words: Potency for growth hormone releasing hormone receptor (GHRFR) relative to human GHRH(1-40)OH- in the rat pituitary cell culture assay. The note with it: Pituitary gland cell. The format is functional, cell-based.
The compound `CC[C@H](C)[C@H](NC(=O)[C@H](C)NC(=O)[C@H](CC(=O)O)NC(=O)[C@H](C)NC(=O)[C@@H](N)Cc1ccc(O)cc1)C(=O)N[C@@H](Cc1ccccc1)C(=O)N[C@H](C(=O)N[C@@H](CC(N)=O)C(=O)N[C@@H](CO)C(=O)N[C@@H](Cc1ccc(O)cc1)C(=O)N[C@@H](CCCN=C(N)N)C(=O)N[C@@H](CCCCN)C(=O)N[C@H](C(=O)N[C@H]1CCC(=O)NCCCC[C@@H](C(=O)N[C@@H](CO)C(=O)N[C@@H](C)C(=O)N[C@@H](CCCN=C(N)N)C(=O)N[C@@H](CCCCN)C(=O)N[C@@H](CC(C)C)C(=O)N[C@@H](CC(C)C)C(=O)N[C@@H](CCC(N)=O)C(=O)N[C@@H](CC(=O)O)C(=O)N[C@H](C(=O)N[C@@H](CCSC)C(=O)N[C@@H](CO)C(=O)N[C@@H](CCCN=C(N)N)C(N)=O)[C@@H](C)CC)NC(=O)[C@H](CCC(N)=O)NC(=O)CNC1=O)C(C)C)[C@@H](C)O` (H-YADAIFTNSYRKVEGQKSARKLLQDIMSR-NH2; lactam 14-17) displayed a Relative potency of 0.026.
The figure for H-YADAIFTNSYRKVLGQLSAAKLLQDIMSR-NH2 is 0.3; for H-YADAIFTNAYRKVLGQLSARKLLQDIMSR-NH2 it is 2.6; for `CC[C@H](C)[C@H](NC(=O)[C@H](C)NC(=O)[C@H](CC(=O)O)NC(=O)[C@H](C)NC(=O)[C@@](C)(N)Cc1ccc(O)cc1)C(=O)N[C@@H](Cc1ccccc1)C(=O)N[C@H](C(=O)N[C@@H](CC(N)=O)C(=O)N[C@@H](CO)C(=O)N[C@@H](Cc1ccc(O)cc1)C(=O)N[C@@H](CCCN=C(N)N)C(=O)N[C@@H](CCCCN)C(=O)N[C@H](C(=O)N[C@@H](CC(C)C)C(=O)N[C@@H](C)C(=O)N[C@@H](CCC(N)=O)C(=O)N[C@@H](CC(C)C)C(=O)N[C@@H](CO)C(=O)N[C@@H](C)C(=O)N[C@@H](CCCN=C(N)N)C(=O)N[C@@H](CCCCN)C(=O)N[C@@H](C)C(=O)N[C@@H](CC(C)C)C(=O)N[C@@H](CCC(N)=O)C(=O)N[C@@H](CC(=O)O)C(=O)N[C@H](C(=O)N[C@@H](CCSC)C(=O)N[C@@H](CO)C(=O)N[C@@H](CCCN=C(N)N)C(N)=O)[C@@H](C)CC)C(C)C)[C@@H](C)O` (H-[αMeY]ADAIFTNSYRKVLAQLSARKALQDIMSR-NH2) it is 25.6.
Next, `CC[C@H](C)[C@H](NC(=O)[C@H](C)NC(=O)[C@H](CC(=O)O)NC(=O)[C@H](C)NC(=O)[C@@H](N)Cc1ccc(O)cc1)C(=O)N[C@@H](Cc1ccccc1)C(=O)N[C@H](C(=O)N[C@@H](CC(N)=O)C(=O)N[C@@H](CO)C(=O)N[C@@H](Cc1ccc(O)cc1)C(=O)N[C@@H](CCCN=C(N)N)C(=O)N[C@@H](CCCCN)C(=O)N[C@H](C(=O)N[C@@H](CC(C)C)C(=O)NCC(=O)N[C@@H](CCC(N)=O)C(=O)N[C@@H](CC(C)C)C(=O)N[C@@H](CO)C(=O)N[C@@H](C)C(=O)N[C@@H](CCCN=C(N)N)C(=O)N[C@@H](CCCCN)C(=O)N[C@@H](CC(C)C)C(=O)N[C@@H](CC(C)C)C(=O)N[C@@H](CCC(N)=O)C(=O)N[C@@H](CC(=O)O)C(=O)N[C@H](C(=O)N[C@@H](CCSC)C(=O)N[C@@H](C)C(=O)N[C@@H](CCCN=C(N)N)C(N)=O)[C@@H](C)CC)C(C)C)[C@@H](C)O` (stereo in doubt; 27): 1.9; H-YADAIFTNSYRKVLGQLSARKLLQAIMSR-NH2: 1.3.
The figure for H-YADAIFTNSYRKVLGQLSARKLLQDIASR-NH2 is 0.32; for `CC[C@H](C)[C@H](NC(=O)[C@H](C)NC(=O)[C@H](CC(=O)O)NC(=O)[C@H](C)NC(=O)[C@@](C)(N)Cc1ccc(O)cc1)C(=O)N[C@@H](Cc1ccccc1)C(=O)N[C@H](C(=O)N[C@@H](C)C(=O)N[C@@H](C)C(=O)N[C@@H](Cc1ccc(O)cc1)C(=O)N[C@@H](CCCN=C(N)N)C(=O)N[C@@H](CCCCN)C(=O)N[C@H](C(=O)N[C@@H](CC(C)C)C(=O)N[C@@H](C)C(=O)N[C@@H](CCC(N)=O)C(=O)N[C@@H](CC(C)C)C(=O)N[C@@H](CO)C(=O)N[C@@H](C)C(=O)N[C@@H](CCCN=C(N)N)C(=O)N[C@@H](CCCCN)C(=O)N[C@@H](C)C(=O)N[C@@H](CC(C)C)C(=O)N[C@@H](CCC(N)=O)C(=O)N[C@@H](CC(=O)O)C(=O)N[C@H](C(=O)N[C@@H](CCSC)C(=O)N[C@@H](C)C(=O)N[C@@H](CCCN=C(N)N)C(N)=O)[C@@H](C)CC)C(C)C)[C@@H](C)O` (H-[αMeY]ADAIFTAAYRKVLAQLSARKALQDIMAR-NH2) it is 11.2.
As for `CCCC[C@H]1NC(=O)[C@H]([C@@H](C)CC)NC(=O)[C@H](NC(=O)[C@H](CCC(N)=O)NC(=O)[C@H](CC(C)C)NC(=O)[C@H](CC(C)C)NC(=O)[C@H](CCCCN)NC(=O)[C@H](CCCN=C(N)N)NC(=O)[C@H](C)NC(=O)[C@H](CO)NC(=O)[C@H](CC(C)C)NC(=O)[C@H](CCC(N)=O)NC(=O)[C@H](C)NC(=O)[C@H](CC(C)C)NC(=O)[C@@H](NC(=O)[C@H](CCCCN)NC(=O)[C@H](CCCN=C(N)N)NC(=O)[C@H](Cc2ccc(O)cc2)NC(=O)[C@H](CO)NC(=O)[C@H](CC(N)=O)NC(=O)[C@@H](NC(=O)[C@H](Cc2ccccc2)NC(=O)[C@@H](NC(=O)[C@H](C)NC(=O)[C@H](CC(=O)O)NC(=O)[C@H](C)NC(=O)[C@@](C)(N)Cc2ccc(O)cc2)[C@@H](C)CC)[C@@H](C)O)C(C)C)CCC(=O)NCC[C@H](C(N)=O)NC(=O)[C@H](CO)NC1=O`, the Relative potency stood at 10.7.
The figure for `CCCC[C@H]1NC(=O)[C@H]([C@@H](C)CC)NC(=O)[C@@H](NC(=O)[C@H](Cc2c[nH]cn2)NC(=O)[C@H](CC(C)C)NC(=O)[C@H](CC(C)C)NC(=O)[C@H](CCCCN)NC(=O)[C@H](CCCN=C(N)N)NC(=O)[C@H](Cc2ccccc2)NC(=O)[C@@H](NC(=O)[C@H](CC(C)C)NC(=O)[C@H](CCC(N)=O)NC(=O)[C@H](C)NC(=O)[C@H](CC(C)C)NC(=O)[C@@H](NC(=O)[C@H](CCCN=C(N)N)NC(=O)[C@H](CCCN=C(N)N)NC(=O)[C@H](Cc2ccc(O)cc2)NC(=O)[C@H](CO)NC(=O)[C@H](CO)NC(=O)[C@@H](NC(=O)[C@H](Cc2ccccc2)NC(=O)[C@@H](NC(=O)[C@H](C)NC(=O)[C@H](CC(=O)O)NC(=O)[C@H](C)NC(=O)[C@@](C)(N)Cc2c[nH]cn2)[C@@H](C)CC)[C@@H](C)O)[C@@H](C)CC)[C@@H](C)CC)CSSC[C@H](C(N)=O)NC(=O)[C@H](CC(N)=O)NC1=O` is 1.1; for H-YADAIATNSYRKVLGQLSARKLLQDIMSR-NH2 it is 0; for H-YADAIFTNSYRKVLGQLSARALLQDIMSR-NH2 it is 0.27.
The figure for `CC[C@@H](C)[C@@H](NC(=O)[C@@H](C)NC(=O)[C@@H](CC(=O)O)NC(=O)[C@@H](C)NC(=O)[C@H](N)Cc1ccc(O)cc1)C(=O)N[C@H](Cc1ccccc1)C(=O)N[C@@H](C(=O)N[C@H](CC(N)=O)C(=O)N[C@H](CO)C(=O)N[C@H]1CCC(=O)NCCCC[C@H](C(=O)N[C@@H](CC(C)C)C(=O)NCC(=O)N[C@H](CCC(N)=O)C(=O)N[C@H](CC(C)C)C(=O)N[C@H](CO)C(=O)N[C@H](C)C(=O)N[C@H](CCCN=C(N)N)C(=O)N[C@H](CCCCN)C(=O)N[C@H](CC(C)C)C(=O)N[C@H](CC(C)C)C(=O)N[C@H](CCC(N)=O)C(=O)N[C@H](CC(=O)O)C(=O)N[C@@H](C(=O)N[C@H](CCSC)C(=O)N[C@H](CO)C(=O)N[C@H](CCCN=C(N)N)C(N)=O)[C@H](C)CC)NC(=O)[C@@H](CCCCN)NC(=O)[C@H](CCCN=C(N)N)NC1=O)[C@H](C)O` is 0.088; for `CC[C@H](C)[C@H](NC(=O)[C@H](C)NC(=O)[C@H](CC(=O)O)NC(=O)[C@H](C)NC(=O)[C@@H](N)Cc1ccc(O)cc1)C(=O)N[C@@H](Cc1ccccc1)C(=O)N[C@H](C(=O)N[C@@H](CC(N)=O)C(=O)N[C@@H](CO)C(=O)N[C@@H](Cc1ccc(O)cc1)C(=O)N[C@@H](CCCN=C(N)N)C(=O)N[C@@H](CCCCN)C(=O)N[C@H](C(=O)N[C@@H](CC(C)C)C(=O)NCC(=O)N[C@@H](CCC(N)=O)C(=O)N[C@@H](CC(C)C)C(=O)N[C@@H]1CCC(=O)NCCCC[C@@H](C(=O)N[C@@H](CC(C)C)C(=O)N[C@@H](CC(C)C)C(=O)N[C@@H](CCC(N)=O)C(=O)N[C@@H](CC(=O)O)C(=O)N[C@H](C(=O)N[C@@H](CCSC)C(=O)N[C@@H](CO)C(=O)N[C@@H](CCCN=C(N)N)C(N)=O)[C@@H](C)CC)NC(=O)[C@H](CCCN=C(N)N)NC(=O)[C@@H](C)NC1=O)C(C)C)[C@@H](C)O` it is 1.8; for `CC[C@@H](C)[C@@H](NC(=O)[C@@H](CC(=O)O)NC(=O)[C@H]1CCCCNC(=O)CC[C@H](NC(=O)[C@H](CCCN=C(N)N)NC(=O)[C@H](C)NC(=O)[C@H](CO)NC(=O)[C@H](CC(C)C)NC(=O)[C@H](CCC(N)=O)NC(=O)CNC(=O)[C@H](CC(C)C)NC(=O)[C@@H](NC(=O)[C@H](CCCCN)NC(=O)[C@H](CCCN=C(N)N)NC(=O)[C@H](Cc2ccc(O)cc2)NC(=O)[C@H](CO)NC(=O)[C@H](CC(N)=O)NC(=O)[C@@H](NC(=O)[C@H](Cc2ccccc2)NC(=O)[C@@H](NC(=O)[C@H](C)NC(=O)[C@H](CC(=O)O)NC(=O)[C@H](C)NC(=O)[C@@H](N)Cc2ccc(O)cc2)[C@@H](C)CC)[C@@H](C)O)C(C)C)C(=O)N[C@@H](CC(C)C)C(=O)N[C@H](CC(C)C)C(=O)N1)C(=O)N[C@H](CCSC)C(=O)N[C@H](CO)C(=O)N[C@H](CCCN=C(N)N)C(N)=O` it is 4.5.
